Columns and labels:
[1] = Selectivity ratio of IC50 for human MCF7ADR cells to IC50 for human MCF7; assay type: toxicity
A2780S = experiment: Induction of cell cycle arrest in human A2780S cells assessed as accumulation of cells at G2/M phase at 10 nM measured after 24 hrs by propidium iodide staining based analysis (reference value: 18.43%); assay type: functional
A2780/Taxol = experiment: Induction of cell cycle arrest in human A2780T cells assessed as accumulation of cells at S phase at 100 nM measured after 24 hrs by propidium iodide staining based analysis (reference value: 29.73%); assay type: functional
[2] = AUC (0 to t) in male Sprague-Dawley rat at 10 mg/kg, iv; assay type: ADME, organism-based; conditions: in vivo
Tubulin (Homo sapiens) = Tubulin (Homo sapiens) (UniProt P68371+Q9H4B7+P0DPH7+P68366+Q13509+Q71U36+P04350+Q3ZCM7+P07437+P68363+Q9BQE3+Q6PEY2+Q13885+Q9BVA1+Q9BUF5); experiment: Inhibition of tubulin polymerization (unknown origin) preincubated for 5 mins with compound followed by GTP addition and measured upto 40 mins; assay type: protein-complex assay; conditions: dose 5-10 µM, time <= 45.0 min
MCF7 = experiment: cells; conditions: Homo sapiens, MCF7, 72 h
Description: Antiproliferative activity against human MCF7 cells assessed as reduction in cell viability measured after 72 hrs

## COc1cccc(-c2cc(NCc3ccc4[nH]ccc4c3)nc(N)n2)c1
[1]
  Ratio IC50: 1.6
A2780S
  Activity: 22.16%
A2780/Taxol
  Activity: 9.12%
[2]
  AUC(0-t): 4270 ng·h/mL
Tubulin (Homo sapiens)
  inhibition: Dose-Dependent Effect
MCF7
  IC50: 20 nM
